41 molecules from ChEMBL document CHEMBL3507680, “University of Dundee, Gates Library screen for HepG2 cell viability” can be followed below.

This data set in a line: Human HepG2 cell viability assay in 384 well format. Format: toxicity, cell-based. On the set-up: dose 125 nL, time 70.5 hour; concentration not given beside the values. Particulars: HepG2 cells, read-out: Inhibition.
Take `CCCc1n[nH]c(C2CN(Cc3nnc(C4CCC4)o3)CCO2)n1` (stereo unspecified): the cytotoxicity at 70.5 h is -5.35%. As for `CC(NC(=O)NCCCc1n[nH]c(N)c1C#N)c1ccc(F)cc1` (stereo unspecified), the figure is -6.13%; as for `CCOc1ncccc1CNC(=O)NCC(O)c1ccccc1OC` (stereo unspecified), -1.39%; as for `Cn1c(NCC(O)c2ccc(F)c(F)c2)c(C#N)c(=O)n(C)c1=O` (stereo unspecified), 1.75%. Consider `COc1ccccc1C(O)CNC(=O)Nc1ccccn1` (stereo unspecified), for which the cytotoxicity at 70.5 h was -5.18%.

On to `COc1cc(C(=O)Nc2nc(C)no2)cc(Cl)c1OC`, for which the cytotoxicity at 70.5 h is -3.51%. The value for `CCc1nc(CN(C)CC(N)=O)cs1` was -4.25%; that for `COc1ccc(OC)c(C(O)CNC(=O)Nc2cccnc2OC)c1` (stereo unspecified) was -6.93%; that for `COc1ccccc1C(O)CNC(=O)Nc1cccnc1OC` (stereo unspecified) was -3.1%. Consider `COc1ccccc1C(O)CNc1c(C#N)c(=O)n(C)c(=O)n1C` (stereo unspecified), for which the cytotoxicity at 70.5 h is -0.895%.

With `CC(C)c1nc(CN(CC(N)=O)C(C)C)cs1`, the cytotoxicity at 70.5 h is -2.05%. As for `CN(C)C(=O)C1CCN(Cc2csc(C(C)(C)C)n2)CC1`, the figure is 18%; as for `c1ncn(CC2CCCN2Cc2csc(C3CCCCC3)n2)n1` (stereo unspecified), 1.84%; as for `Clc1snnc1CN1CCCC1Cn1cccn1` (stereo unspecified), -1.24%. For the molecule `COc1ccsc1C(=O)N1CCCC(n2nc(C)cc2C)C1` (stereo unspecified), the cytotoxicity at 70.5 h was -3.66%. Turning to `Cc1nc(CN2CCC(N3CCN(C)C3=O)CC2)no1`, the cytotoxicity at 70.5 h came to 18%. As for `COc1cc(Cl)ccc1C(=O)N1CCCC(n2nc(C)nc2C)C1` (stereo unspecified), the cytotoxicity at 70.5 h was -0.226%. As for `COc1ccsc1C(=O)N1CCCC(n2cncn2)C1` (stereo unspecified), the cytotoxicity at 70.5 h is -2.59%. Take `CC(C)(C)c1n[nH]c(C2CN(Cc3nnc(C4CC4)o3)CCO2)n1` (stereo unspecified): the cytotoxicity at 70.5 h was -6.03%. For the molecule `CCc1nc(CN(C(C)=O)C2CCN(Cc3ccccc3F)C2)no1` (stereo unspecified), the cytotoxicity at 70.5 h was -7.96%. With `COc1ccccc1OCCNC1CCCN(Cc2noc(C)n2)C1` (stereo unspecified), the cytotoxicity at 70.5 h was found to be 31.2%. For the molecule `CCc1nc(CN(C(C)=O)C2CCN(CC3CCOCC3)C2)no1` (stereo unspecified), the cytotoxicity at 70.5 h is -9.95%.

Take `COc1ccc(CCNC2CCCN(Cc3noc(C)n3)C2)cc1` (stereo unspecified): the cytotoxicity at 70.5 h is -14%. As to `O=C1C(NS(=O)(=O)c2ccc(F)cc2)CCN1Cc1ccccc1` (stereo unspecified), the cytotoxicity at 70.5 h was -13.4%.

In the case of `COc1ccc(C2=CCN(C(=O)CN(C)S(C)(=O)=O)CC2)cc1`, the cytotoxicity at 70.5 h was -10.2%. Regarding `COc1ccc(C2=CCN(C(=O)CN(CC(N)=O)C(C)C)CC2)cc1`, the cytotoxicity at 70.5 h is -4.3%. With `Cc1cc(CN2CCN(CC(O)c3ccc4c(c3)OCO4)CC2)no1` (stereo unspecified), the cytotoxicity at 70.5 h was -10.8%. The value for `Cc1nc(C)n(CC2CCCN2CCOc2ccccc2C#N)n1` (stereo unspecified) was -13.6%; that for `Cc1cc(CN2CCN(CC(O)c3ccc(C)c(C)c3)CC2)no1` (stereo unspecified) was -7.74%.

Turning to `Cc1ccc(S(=O)(=O)NC(=O)COc2cccc(C(N)=O)c2)s1`, the cytotoxicity at 70.5 h is -10.7%. `Cc1nc(C)n(CC2CCCN2CCCOc2ccc(C#N)cc2)n1` (stereo unspecified): the cytotoxicity at 70.5 h is -4.85%. On to `Cc1nc(C)n(CC2CCCN2CCOc2ccc(F)cc2)n1` (stereo unspecified), for which the cytotoxicity at 70.5 h was -9.83%. Regarding `Cc1nc(CN2CCCC(NCCOc3ccccc3C#N)C2)no1` (stereo unspecified), the cytotoxicity at 70.5 h was -2.51%.

On to `Cc1cc(C)n(C2CCCN(C(=O)Cc3cccs3)C2)n1` (stereo unspecified), for which the cytotoxicity at 70.5 h amounted to 11%. In the case of `CN1CCOC(CNCc2coc(-c3ccccc3Cl)n2)C1` (stereo unspecified), the cytotoxicity at 70.5 h came out at 1.39%. The value for `CCN(CC1CCCO1)C(=O)Nc1cc(C)ccc1S(C)(=O)=O` (stereo unspecified) was -1.66%; that for `O=C(Cc1cccnc1)N1CCCC(n2cncn2)C1` (stereo unspecified) was -1.4%; that for `COCCOc1cccc(CNCC2CN(C)CCO2)c1` (stereo unspecified) was -0.0199%.

Consider `CN1CCOC(CNCc2ccc(OCc3ccccn3)cc2)C1` (stereo unspecified), for which the cytotoxicity at 70.5 h is -6.69%. Regarding `Cc1cc(NC(=O)NCC(c2ccccc2)N2CCOCC2)n(C)n1` (stereo unspecified), the cytotoxicity at 70.5 h was -3.59%. For `Cc1nc(CSCCC(=O)NCc2ccc(N(C)C)cc2)cs1`, the cytotoxicity at 70.5 h was -3.76%.
